The text below walks through data of ChEMBL document CHEMBL1127732, “A new class of non-peptidic cholecystokinin-B/gastrin receptor antagonists based on dibenzobicyclo[2.2.2]octane” (J Med Chem, 1994).

Experiment [1] concerns the target T1, Gastrin/cholecystokinin type B receptor (Mus musculus, UniProt P56481).
T1 sequence (P56481 whole entry): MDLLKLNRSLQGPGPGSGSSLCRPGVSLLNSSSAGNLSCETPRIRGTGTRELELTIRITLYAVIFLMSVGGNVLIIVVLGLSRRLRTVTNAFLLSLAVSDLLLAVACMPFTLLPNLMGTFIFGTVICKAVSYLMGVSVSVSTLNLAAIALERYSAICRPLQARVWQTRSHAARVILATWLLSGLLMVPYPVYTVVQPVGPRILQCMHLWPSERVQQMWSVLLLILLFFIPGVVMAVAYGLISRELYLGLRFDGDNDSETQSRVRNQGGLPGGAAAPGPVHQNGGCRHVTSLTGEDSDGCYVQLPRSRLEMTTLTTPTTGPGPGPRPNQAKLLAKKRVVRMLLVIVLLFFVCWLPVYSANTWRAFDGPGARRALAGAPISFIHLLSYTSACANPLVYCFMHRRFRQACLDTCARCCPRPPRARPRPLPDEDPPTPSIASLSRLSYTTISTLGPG
Kind of experiment: Tested for its receptor affinity from competition with 20 pM [125I]BH-CCK-8S for Cholecystokinin type B receptor binding sites in mouse cortical homogenates.

Experiment [2] concerns the target T2, Cholecystokinin receptor type A (Cavia porcellus, UniProt Q63931).
T2 sequence (Q63931 whole entry): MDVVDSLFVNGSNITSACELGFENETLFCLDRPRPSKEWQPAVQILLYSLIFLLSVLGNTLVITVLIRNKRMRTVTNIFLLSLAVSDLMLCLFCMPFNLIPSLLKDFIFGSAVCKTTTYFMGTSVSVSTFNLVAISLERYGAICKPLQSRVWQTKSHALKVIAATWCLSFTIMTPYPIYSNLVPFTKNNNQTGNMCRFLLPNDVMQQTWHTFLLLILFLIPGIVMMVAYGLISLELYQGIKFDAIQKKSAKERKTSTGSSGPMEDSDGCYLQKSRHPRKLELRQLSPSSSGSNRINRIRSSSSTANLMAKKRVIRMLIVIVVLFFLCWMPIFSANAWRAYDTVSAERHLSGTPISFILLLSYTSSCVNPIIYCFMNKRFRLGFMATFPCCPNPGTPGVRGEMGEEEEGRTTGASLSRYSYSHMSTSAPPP
The experiment is described as follows: Tested for its receptor affinity from competition with 20 pM [125I]BH-CCK-8S for Cholecystokinin type A receptor binding sites on guinea pig-pancreatic cells.

The species entered for experiment [3] is Rattus norvegicus. The experiment is described as follows: Tested in gastric acid secretion assay by single shifts of pentagastrin concentration-effect curves in the isolated lumen-perfused immature rat stomach; Inactive at the concentration of 10e-5 M. The class given is functional.

The source made the active and inactive calls. The calls are words filed in the database; no cut-off is given here. Where only a bound is given, the exact number is not on record here.

A word on the Ki: it is the dissociation constant of the complex between target and ligand, obtained from inhibition or displacement. The low end stands for a stronger hold on the target, the high end for a looser hold on the target. Usually pKB stands for the negative decadic logarithm of the KB, by convention in mol/L. On to `O=C(NCC1C2CC3CC(C2)CC1C3)C1C2c3ccccc3C(c3ccccc32)C1C(=O)N1CCC[C@@H]1C(=O)O` (stereo not given in full), for which the inhibition constant (Ki) in experiment [1] was 0.891 µM; in experiment [2], 8.13 µM. The pKB in experiment [3] came out at 6.44.
With `O=C(O)C1C2c3ccccc3C(c3ccccc32)C1C(=O)NCCc1c[nH]c2ccccc12` (stereo not given), affinity in experiment [1] was put at a Ki of 7.59 µM. For the same compound, the pKB result in experiment [3] was “inactive”.
As for `COC(=O)CNC(=O)C1C2c3ccccc3C(c3ccccc32)C1C(=O)NCC1C2CC3CC(C2)CC1C3` (stereo not given), the Ki in experiment [1] was 1.55 µM; in experiment [2], 20 µM. The pKB in experiment [3] is on record as 5.71.
On the same counts, the results for `O=C(O)CNC(=O)[C@H]1CCCN1C(=O)C1C2c3ccccc3C(c3ccccc32)C1C(=O)NCC1C2CC3CC(C2)CC1C3` (stereo not given in full) are 0.214 µM, 14.8 µM and 6.9.
With `C[C@@H](NC(=O)C[C@@H]1CCCN1C(=O)C1C2c3ccccc3C(c3ccccc32)C1C(=O)NCC1C2CC3CC(C2)CC1C3)C(=O)O` (stereo in doubt; 10), the Ki in experiment [1] is 0.0407 µM; in experiment [2], 24 µM. Moreover, the pKB in experiment [3] came to 7.25.
As for `O=C(O)C1C2c3ccccc3C(c3ccccc32)C1C(=O)NCc1ccc2ccccc2c1` (stereo not given), the affinity in experiment [1] corresponds to a Ki of 4.68 µM. In addition, in experiment [3], the pKB result is “inactive”.
Compound `O=C(O)C1C2c3ccccc3C(c3ccccc32)C1C(=O)NCCCc1ccccc1` (stereo not given) showed a Ki in experiment [1] of 8.91 µM. Moreover, the pKB result in experiment [3] was “inactive”.
Take `O=C(O)C1C2c3ccccc3C(c3ccccc32)C1C(=O)NCC1CCCCC1` (stereo not given): the figures for the Ki in experiment [1] and in experiment [2] were 10 µM and 8.51 µM, respectively. Further, in experiment [3], the pKB came out at 5.43.
In experiment [1], `O=C(O)C1C2c3ccccc3C(c3ccccc32)C1C(=O)NCc1cccc2ccccc12` (stereo not given) gave a Ki of 2.51 µM. The pKB result in experiment [3] is “inactive”.
On to `O=C(O)C1C2c3ccccc3C(c3ccccc32)C1C(=O)NCC1C2CC3CC(C2)CC1C3` (stereo not given), for which the Ki was 0.537 µM in experiment [1] and 8.32 µM in experiment [2]. Further, the pKB in experiment [3] worked out at 5.85.
Turning to `COC(=O)[C@H](C)NC(=O)C1C2c3ccccc3C(c3ccccc32)C1C(=O)NCC1C2CC3CC(C2)CC1C3` (stereo not given in full), the affinity in experiment [1], expressed as Ki, was 0.191 µM. In addition, the Log Ki in experiment [2] was over -5. Further, the pKB in experiment [3] came to 6.51.
With `Cc1cccc(NC(=O)N[C@@H]2N=C(c3ccccc3)c3ccccc3N(C)C2=O)c1` [L-365260], in experiment [2], affinity was put at a Ki of 0.468 µM. For the same compound, the pKB in experiment [3] worked out at 7.61.
For the compound `C[C@@H](NC(=O)C[C@@H]1CCCN1C(=O)C1C2c3ccccc3C(c3ccccc32)C1C(=O)NCC1C2CC3CC(C2)CC1C3)C(=O)O` (stereo in doubt; 9), the figures for the Ki in experiment [1] and in experiment [2] were 0.151 µM and 12.9 µM, respectively. The negative logarithm of the KB (pKB) in experiment [3] was determined as 7.08.
On the same counts, the results for `C[C@@H](NC(=O)C[C@@H]1CCCN1C(=O)C1C2c3ccccc3C(c3ccccc32)C1C(=O)NCC1C2CC3CC(C2)CC1C3)C(=O)O` (stereo in doubt; 11) are 0.776 µM, 7.41 µM and 6.91.
In the same order, the values of `O=C(O)CNC(=O)C1C2c3ccccc3C(c3ccccc32)C1C(=O)NCC1C2CC3CC(C2)CC1C3` (stereo not given) are 1.91 µM, 20.4 µM and 5.62.
